According to patent US4327088A, “Phosphonooxy- or glycosyloxy-substituted acrylophenones, compositions and uses thereof” (priority 1979, dated 1982):
Values after ≈ are worked out from the molar mass of the structure shown. Like-named read-outs stand apart in the source and are kept apart here.

How the values were obtained:
[1] = tested on: rhinovirus HGP; assay: Inhibition of viral cytopathogenic effect (rhinovirus HGP in HeLa cells); type: cell-based; conditions: Enterovirus, 48 h, read-out: Minimal Inhibitory Concentration against rhinovirus HGP
Procedure: Inhibition of viral cytopathogenic effect
A suspension of HeLa cells (6×10^4) was mixed with rhinovirus HGP (3×10^3 PFU) (plaque forming units) and was plated in a microtest plate where serially diluted compounds to be tested were contained. The cells were then cultured with Eagle's minimum essential medium containing 2% calf serum, 1% tryptose phosphate broth, 100 μg/ml of streptomycin sulfate and 20 unit/ml of penicillin G. Viral c.p.e. (cytopathogenic effect) was observed by a microscope after 2 days culture at 33° C
The antiviral activity of the tested compounds is expressed by the minimal inhibitory concentration at which dose viral c.p.e. is inhibited by 50% as compared to the control culture.

[2] = Solubility in water
[3] = Acute toxicity in mice; parameters: species or system ddy mice; conditions: mouse, in vivo, day 21
[4] = tested on: Coxsackie virus B1; assay: Antiviral activity against lethal infection of Coxsackie virus B1 in mice; type: in vivo, ddy mice; conditions: up to 21 days
Procedure: The antiviral activities of compounds of the invention were tested against lethal infection of Coxsackie virus B1 in mice. ddy Mice weighing about 15 g were infected intraperitoneally (i.p.) by about LD50 of the virus. The infected mice were then administered 4 times with the compounds either by oral (p.o.) or intravenous (i.v.) route at -2, 7, 22 and 31 hrs. after infection. The survivals were recorded up to 21 days.

[5] = ip, i.p. single dose, ddy mice 15 ~ 20 g, dissolved in dimethylsulfoxide, read-out: LD50, i.p. route
[6] = po, ddy mice, suspended in 0.5% carboxymethyl cellulose, read-out: LD50, p.o. route

SMILES	IC50 [1]	soluble in water [2]	LD50 at 504 h [3, 5]	LD50 at 504 h [3, 6]	% Survival ([4]; 5 mg/kg × 4 i.v.)	% Survival ([4]; 10 mg/kg × 4 i.v.)	% Survival ([4]; 20 mg/kg × 4 p.o.)	% Survival ([4]; 40 mg/kg × 4 p.o.)	% Survival ([4]; 80 mg/kg × 4 p.o.)
COc1cc(OC)c(C(=O)/C=C/c2ccc3c(c2)OCO3)c(OP(=O)(O)O)c1 [2',4'-dimethoxy-3,4-(methylenedioxy)-6'-(phosphonooxy)chalcone]	0.06 µg/mL (≈ 0.147 µM)	soluble in water	> 500 mg/kg	> 1000 mg/kg					
COc1cc(OC)c(C(=O)/C=C/c2ccc(C)o2)c(OP(=O)(O)O)c1 [2',4'-dimethoxy-3-(5-methyl-2-furyl)-6'-(phosphonooxy)acrylophenone]	0.04 to 0.1 µg/mL (≈ 0.109 to 0.272 µM)	soluble in water	> 500 mg/kg	> 1200 mg/kg					
COc1cc(OC)c(C(=O)/C=C/c2ccc(SC)cc2)c(OP(=O)(O)O)c1 [2',4'-dimethoxy-4-(methylthio)-6'-(phosphonooxy)chalcone]	0.02 µg/mL (≈ 0.0487 µM)	soluble in water	> 500 mg/kg	> 1000 mg/kg					
COc1cc(OC)c(C(=O)/C=C/c2ccc(C)cc2)c(OP(=O)(O)O)c1 [2',4'-dimethoxy-4-methyl-6'-(phosphonooxy)chalcone]	0.02 µg/mL (≈ 0.0529 µM)	soluble in water	> 500 mg/kg	> 2000 mg/kg					
COc1cc(OC)c(C(=O)/C=C/c2cccs2)c(OP(=O)(O)O)c1 [2',4'-dimethoxy-6'-(phosphonooxy)-3-(2-thienyl)acrylophenone]	0.04 to 0.1 µg/mL (≈ 0.108 to 0.27 µM)	soluble in water	> 500 mg/kg	> 1000 mg/kg					
COc1ccc(/C=C/C(=O)c2c(OC)cc(OC)cc2OC(=O)c2ccc(OC)cc2)cc1 [2',4,4'-trimethoxy-6'-(4-methoxybenzoyloxy)chalcone]	0.03 to 0.1 µg/mL (≈ 0.0669 to 0.223 µM)		> 500 mg/kg	> 1000 mg/kg					
COc1ccc(/C=C/C(=O)c2c(OC)cc(OC)cc2OP(=O)(O)O)cc1 [2',4,4'-trimethoxy-6'-(phosphonooxy)chalcone]	0.03 to 0.1 µg/mL (≈ 0.0761 to 0.254 µM)	soluble in water	> 500 mg/kg	> 1000 mg/kg	20%	60%	10%	50%	70%
CC[N+](CC)(CC)CC(=O)Oc1cc(OC)cc(OC)c1C(=O)/C=C/c1ccc(OC)cc1.[Cl-] [2',4,4'-trimethoxy-6'-(triethylammonioacetoxy) chalcone chloride]	0.01 µg/mL	soluble in water	180 mg/kg	> 1000 mg/kg					
COc1ccc(/C=C/C(=O)c2c(OC)cc(OC)cc2OC(=O)c2ccc(OC)cc2OC)cc1 [2'-(2,4-dimethoxybenzoyloxy)-4,4',6'-trimethoxychalcone]	0.03 to 0.1 µg/mL (≈ 0.0627 to 0.209 µM)		> 500 mg/kg	> 1000 mg/kg					
COc1ccc(/C=C/C(=O)c2c(OC)cc(OC)cc2O[C@@H]2O[C@H](COC(C)=O)[C@@H](OC(C)=O)[C@H](OC(C)=O)[C@H]2NC(C)=O)cc1 [2'-(2-acetamido-2-deoxy-3,4,6-tri-O-acetyl-β-D-glucopyranosyloxy)-4,4',6'-trimethoxychalcone]	0.1 to 0.3 µg/mL (≈ 0.155 to 0.466 µM)		> 500 mg/kg	> 2000 mg/kg					
COc1ccc(/C=C/C(=O)c2c(OC)cc(OC)cc2O[C@@H]2O[C@H](CO)[C@@H](O)[C@H](O)[C@H]2NC(C)=O)cc1 [2'-(2-acetamido-2-deoxy-β-D-glucopyranosyloxy)-4,4',6'-trimethoxychalcone]	3 to 10 µg/mL (≈ 5.8 to 19.3 µM)	soluble in water	> 300 mg/kg	> 2000 mg/kg					
COc1ccc(/C=C/C(=O)c2c(OC)cc(OC)cc2OC(=O)c2ccccc2)cc1 [2'-(benzoyloxy)-4,4',6'-trimethoxychalcone]	0.03 to 0.1 µg/mL (≈ 0.0717 to 0.239 µM)		> 500 mg/kg	> 1000 mg/kg					
COc1ccc(/C=C/C(=O)c2c(OC)cc(OC)cc2OC(=O)OCc2ccccc2)cc1 [2'-(benzyloxycarbonyloxy)-4,4',6'-trimethoxychalcone]	0.01 to 0.03 µg/mL (≈ 0.0223 to 0.0669 µM)		> 500 mg/kg	> 1000 mg/kg					
COc1ccc(/C=C/C(=O)c2c(OC)cc(OC)cc2OC(=O)c2ccco2)cc1 [2'-(furoyloxy)-4,4',6'-trimethoxychalcone]	0.03 µg/mL (≈ 0.0735 µM)		> 500 mg/kg	> 1000 mg/kg					
CCOc1cc(OC)cc(OP(=O)(O)O)c1C(=O)/C=C/c1ccc(OC)cc1 [2'-ethoxy-4,4'-dimethoxy-6'-(phosphonooxy)chalcone]	0.02 µg/mL (≈ 0.049 µM)	soluble in water	> 500 mg/kg	> 1000 mg/kg				30%	
COCOc1ccc(/C=C/C(=O)c2c(O)cc(OC)cc2OC)cc1 [2'-hydroxy-4',6'-dimethoxy-4-(methoxymethoxy)chalcone]	0.03 to 0.1 µg/mL (≈ 0.0871 to 0.29 µM)		> 500 mg/kg	> 1000 mg/kg					
COc1cc(O)c(C(=O)/C=C/c2ccc3[nH]cnc3c2)c(OC)c1 [3-(5-benzimidazolyl)-2'-hydroxy-4',6'-dimethoxyacrylophenone]	0.1 to 0.3 µg/mL (≈ 0.308 to 0.925 µM)		> 100 mg/kg	> 1000 mg/kg					
CCOc1cc(OC)c(C(=O)/C=C/c2ccc(OC)cc2)c(OP(=O)(O)O)c1 [4'-ethoxy-2',4-dimethoxy-6'-(phosphonooxy)chalcone]	0.03 µg/mL (≈ 0.0735 µM)	soluble in water	> 500 mg/kg	> 2000 mg/kg					
COc1cc(O)c(C(=O)/C=C/c2ccc(OC(C)=O)cc2)c(OC)c1 [4-acetoxy-2'-hydroxy-4',6'-dimethoxychalcone]	0.3 µg/mL (≈ 0.876 µM)		> 500 mg/kg	> 1000 mg/kg					
CCOc1ccc(/C=C/C(=O)c2c(OC)cc(OC)cc2OP(=O)(O)O)cc1 [4-ethoxy-2',4'-dimethoxy-6'-(phosphonooxy)chalcone]	0.006 to 0.02 µg/mL (≈ 0.0147 to 0.049 µM)	soluble in water	> 500 mg/kg	> 1000 mg/kg					
